Laboratory results published in patent US20110224214A1, “PROCESS FOR PREPARING POLYMORPH” (SANOFI-AVENTIS U.S. LLC, priority 2008, published 2011).
Entries after “also recorded” stand apart in the source; their conditions may differ.

Tests used:
[1] = biological target: peripheral-type benzodiazepine receptors (Homo sapiens, UniProt P30536); settings: cited from earlier work
[2] = polymorphic stability during wet granulation (XRPD); assay type: physicochemical; settings: wet granulation of Example 6, dried at 50° C. for 2 hours
Experimental: The sample prepared according the Example 5, above was used to prepare a wet granulation formulation with the following composition: […]
The drug substance product of Example 5, lactose, microcrystalline cellulose (Avicel®, available from FMC BioPolymer, Philadelphia, Pa.), and sodium starch glycolate were pre-blended by screening five times with a 20 mesh screen. For the granulating fluid, the hydroxypropylmethylcellulose was dissolved in hot water at 5% concentration then cooled to 20° C. The sodium lauryl sulfate was dissolved in the cooled granulating fluid at 1.5% concentration. Approximately 50% water (relative to the weight of total solids) was used to prepare the granulation; the granulating fluid was added dropwise to the premixed powders while mixing in a mortar and pestle. The granulation was dried at 50° C. for 2 hours, and then ground in a mortar and pestle prior to analysis.
XRPD patterns were obtained with a Bruker D8® ADVANCE X-ray powder diffractometer using copper K-alpha radiation. The instrument was equipped with parallel beam optics, and the tube voltage and amperage were set to 40 kV and 40 mA, respectively. Samples were scanned at a rate of 1.0 degree/minute from 2 to 40 degrees in angle 2-theta.

[3] = impurity profile by HPLC after annealing; assay type: physicochemical; settings: annealed at 80° C. for 1 hour
Experimental: 4.0 g of drug substance were dissolved in 200 mL of a 50/50 (by volume) mixture of DCM and EtOH at 20° C. The mixture was stirred for about 1 hour. The resulting clear solution was spray dried in a Buchi B290 Mini Spray Dryer by pumping the solution through a 0.7 mm nozzle (commercially available from Buchi) at approximately 2 to 3 mL/minute. The system was operated at an inlet gas temperature of 100° C. and an outlet gas temperature of approximately 70° C. The solvent was removed to isolate the solid (approximately 3.0 g).
The HPLC method parameters utilized in Example 4 were as follows: System HP 1050, column-Waters C8 Symmetry Shield 5 um (4.6×150 mm), Mobile phase (“A”): 0.05% formic acid in water, Mobile phase (“B”): 0.05% formic acid in acetonitrile, injection volume: 10 μl, wavelength: 258 nm, and flow rate: 0.8 mL/minute. A gradient method was used according to the time table below.

[4] = stability profile of the crystalline form; assay type: physicochemical

peripheral-type benzodiazepine receptors, sequence (P30536 whole entry): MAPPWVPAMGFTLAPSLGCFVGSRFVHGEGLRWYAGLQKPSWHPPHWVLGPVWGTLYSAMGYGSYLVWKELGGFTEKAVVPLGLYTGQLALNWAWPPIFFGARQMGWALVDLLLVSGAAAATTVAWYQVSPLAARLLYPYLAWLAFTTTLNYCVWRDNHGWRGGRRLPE

Row | SMILES | affinity for the peripheral-type benzodiazepine receptors [1] | conversion of Form II to crystalline Form I during the wet granulation process (XRPD) [2] | changes in the impurity profile after the annealing process (HPLC) [3] | stability profile to support use in a pharmaceutical product [4]
1 | CN(C)C(=O)Cc1nn(-c2ccccc2)c(=O)c2c1c1ccc(Cl)cc1n2C [7-Chloro-N,N,5-trimethyl-4-oxo-3-phenyl-3,5-dihydro-4H-pyridazino[4,5-b]indole-1-acetamide] | high affinity | – | – | –
2 | CN(C)C(=O)Cc1nn(-c2ccccc2)c(=O)c2c1c1ccc(Cl)cc1n2C [Form II, 7-chloro-N,N,5-trimethyl-4-oxo-3-phenyl-3,5-dihydro-4H-pyridazino[4,5-b]indole-1-acetamide] | – | no evidence of the Form II solid converting to crystalline Form I; also recorded: stable with respect to wet granulation | no changes in the impurity profile | sufficient stability profile
